Reference: patent publication US8309545B2, “Benzofuran potassium channel blockers and uses thereof” (Bionomics Limited, priority 2006, dated 2012)

These compounds were tested against T1, human Kv1.3 ion channel (Homo sapiens, UniProt P22001) (assay: Inhibition of Kv1.3 currents, planar patch clamp in Jurkat cells). Conditions: Human Jurkat cells (endogenous hKv1.3), averaged dose response data from 3 or more cells.
T1 construct: Human Jurkat cells (which endogenously express hKv1.3) were used in place of rat L929 cells; endogenous in cells; host or cells: Human Jurkat cells
T1 sequence (P22001 whole entry): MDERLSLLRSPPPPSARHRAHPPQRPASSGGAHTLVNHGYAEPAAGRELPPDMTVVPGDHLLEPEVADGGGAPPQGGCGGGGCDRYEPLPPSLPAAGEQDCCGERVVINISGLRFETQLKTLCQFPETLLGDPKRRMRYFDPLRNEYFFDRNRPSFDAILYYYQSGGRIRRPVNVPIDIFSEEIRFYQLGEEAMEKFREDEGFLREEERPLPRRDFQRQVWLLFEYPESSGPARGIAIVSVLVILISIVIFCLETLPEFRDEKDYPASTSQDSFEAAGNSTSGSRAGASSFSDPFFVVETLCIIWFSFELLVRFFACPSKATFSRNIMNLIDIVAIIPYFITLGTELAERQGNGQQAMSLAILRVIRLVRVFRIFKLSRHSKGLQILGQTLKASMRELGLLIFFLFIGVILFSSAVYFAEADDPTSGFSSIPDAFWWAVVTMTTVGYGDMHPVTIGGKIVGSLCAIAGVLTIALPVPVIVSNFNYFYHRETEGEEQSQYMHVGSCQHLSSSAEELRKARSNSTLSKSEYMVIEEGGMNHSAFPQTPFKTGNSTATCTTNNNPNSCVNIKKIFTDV
Type: cell-based
Description: Potency of compounds to inhibit the human Kv1.3 ion channel were determined as follows:
EC50 values for inhibition of Kv1.3 currents were determined by the method according to Schmitz et al (2005) Molecular Pharmacology 68, 1254-1270 with the following differences: • 1. Human Jurkat cells (which endogenously express hKv1.3) were used in place of rat L929 cells. • 2. All electrophysiology was performed using planar patch clamp (Port-A-Patch, Nanion Technologies Gmbh, Munich) in contrast to conventional patch clamp. • 3. EC50 values shown were determined from averaged dose response data obtained from 3 or more cells.

EC50 | SMILES
0.081 µM | COc1c(C(C)=O)c(OCCn2ccnc2)c(OCCCc2ccccc2)c2occc12 [Example 17, 5-Acetyl-6-(2-imidazol-1-ylethoxy)-4-methoxy-7-(3-phenylpropoxy)benzofuran]
0.114 µM | Cc1cc(=O)c2c(C)c3ccoc3c(OCCCc3ccccc3)c2o1 [18 a)]
0.34 µM | COc1c(C(C)=O)c(O)c(OCCNc2ccccc2)c2occc12 [Example 64c, 1-[6-Hydroxy-4-methoxy-7-(2-phenylamino-ethoxy)-benzofuran-5-yl]-ethanone]
0.42 µM | CC(=O)c1c(OCCN(C)C)c(OCCCc2ccccc2)c2occc2c1C [18 c)]

Further lines, the compound ahead of its results:

SMILES | EC50
CC(=O)c1c(O)c(OC[C@H]2C[C@@H]2c2ccccc2)c2occc2c1C (racemic) [Example 58b, rac-1-[6-Hydroxy-4-methyl-7-(1S,2S-2-phenyl-cyclopropylmethoxy)-benzofuran-5-yl]-ethanone] | 0.512 µM
CC(=O)c1c(OCCN2CCOCC2)c(OCCOc2ccc(F)cc2)c2occc2c1C [Example 43e, 1-[7-[2-(4-Fluoro-phenoxy)-ethoxy]-4-methyl-6-(2-morpholin-4-yl-ethoxy)-benzofuran-5-yl]-ethanone] | 0.286 µM
CC(=O)c1cc2ccoc2cc1OCCCc1ccccc1 [Example 3, 5-Acetyl-6-(3-phenylpropoxy)benzofuran] | 0.184 µM
